Calls of active or inactive are those of the source.
Experiments:
ORF 73 = ORF 73 (Human herpesvirus 8, UniProt O40947); assay: KSHV LANA DNA-binding disruption – biochemical, fluorescence polarization, cherry-picked samples, dose response (AID 504725); parameters: species or system Human gammaherpesvirus 8;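 further: fluorescence polarization of a labeled DNA duplex reporting LANA DNA binding; potency is for inhibitors that block LANA binding to the DNA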
[1] = molecular target: T1, Polyadenylate-binding protein 1 (Homo sapiens, UniProt P11940); assay: MLLE domain peptide-binding blockers, IC50 – biochemical, fluorescence polarization, FITC-PAM2 peptide, dose response (AID 602259); type: functional; conditions: read-out: IC50_Mean
T1 sequence (P11940 whole entry, the tested form may be a part): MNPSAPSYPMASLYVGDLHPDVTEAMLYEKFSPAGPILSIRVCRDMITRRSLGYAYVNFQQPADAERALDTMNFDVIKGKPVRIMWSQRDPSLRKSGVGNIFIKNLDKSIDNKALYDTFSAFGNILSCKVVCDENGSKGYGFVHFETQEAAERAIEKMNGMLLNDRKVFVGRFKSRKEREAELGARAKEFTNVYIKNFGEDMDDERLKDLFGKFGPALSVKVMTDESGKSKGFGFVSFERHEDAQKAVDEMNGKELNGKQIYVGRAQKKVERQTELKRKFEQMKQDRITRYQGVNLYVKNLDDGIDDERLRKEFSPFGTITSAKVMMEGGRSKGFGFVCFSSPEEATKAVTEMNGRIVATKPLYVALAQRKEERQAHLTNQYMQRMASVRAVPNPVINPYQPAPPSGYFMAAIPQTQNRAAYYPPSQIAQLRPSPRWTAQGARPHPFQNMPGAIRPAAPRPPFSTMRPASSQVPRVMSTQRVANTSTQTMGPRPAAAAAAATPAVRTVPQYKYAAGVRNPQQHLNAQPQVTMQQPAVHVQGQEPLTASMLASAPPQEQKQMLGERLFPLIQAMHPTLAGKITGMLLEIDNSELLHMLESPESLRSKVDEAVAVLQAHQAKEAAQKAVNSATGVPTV

[2] = molecular target: T2, Small ubiquitin-related modifier 1 (Homo sapiens, UniProt P63165); assay: SUMO1 protein-protein binding blockers, potency – biochemical, FRET, dose response (AID 624383); type: functional; conditions: read-out: IC50_Mean
T2 sequence (P63165 whole entry, the tested form may be a part): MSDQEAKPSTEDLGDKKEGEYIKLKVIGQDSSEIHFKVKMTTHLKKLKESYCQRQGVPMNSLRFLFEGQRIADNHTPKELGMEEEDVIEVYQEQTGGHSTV

[3] = molecular target: T3, RNA-binding protein pos-1 (Caenorhabditis elegans, UniProt G5EF15); assay: disruptors of C. elegans POS-1 RNA interaction – biochemical, fluorescence polarization, dose response (AID 1964);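 further: purified POS-1 fused to maltose binding protein made in E. coli; potency of compounds blocking POS-1 binding to fluorescent RNA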
T3 sequence (G5EF15 whole entry): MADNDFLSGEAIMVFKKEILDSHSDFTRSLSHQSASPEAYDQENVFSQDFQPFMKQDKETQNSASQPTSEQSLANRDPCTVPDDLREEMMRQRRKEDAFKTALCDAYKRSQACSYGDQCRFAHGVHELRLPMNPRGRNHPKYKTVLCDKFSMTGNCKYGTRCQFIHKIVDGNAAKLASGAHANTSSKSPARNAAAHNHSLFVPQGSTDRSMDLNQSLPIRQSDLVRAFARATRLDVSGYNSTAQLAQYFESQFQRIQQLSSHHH

Genome polyprotein = Genome polyprotein (dengue virus type 2, UniProt P29990); assay: flavivirus cap methylation enzyme inhibition – biochemical, confirmation dose response, primary screen (AID 588689); type: functional
Sequence of Genome polyprotein (P29990 2492-3391 limits assumed): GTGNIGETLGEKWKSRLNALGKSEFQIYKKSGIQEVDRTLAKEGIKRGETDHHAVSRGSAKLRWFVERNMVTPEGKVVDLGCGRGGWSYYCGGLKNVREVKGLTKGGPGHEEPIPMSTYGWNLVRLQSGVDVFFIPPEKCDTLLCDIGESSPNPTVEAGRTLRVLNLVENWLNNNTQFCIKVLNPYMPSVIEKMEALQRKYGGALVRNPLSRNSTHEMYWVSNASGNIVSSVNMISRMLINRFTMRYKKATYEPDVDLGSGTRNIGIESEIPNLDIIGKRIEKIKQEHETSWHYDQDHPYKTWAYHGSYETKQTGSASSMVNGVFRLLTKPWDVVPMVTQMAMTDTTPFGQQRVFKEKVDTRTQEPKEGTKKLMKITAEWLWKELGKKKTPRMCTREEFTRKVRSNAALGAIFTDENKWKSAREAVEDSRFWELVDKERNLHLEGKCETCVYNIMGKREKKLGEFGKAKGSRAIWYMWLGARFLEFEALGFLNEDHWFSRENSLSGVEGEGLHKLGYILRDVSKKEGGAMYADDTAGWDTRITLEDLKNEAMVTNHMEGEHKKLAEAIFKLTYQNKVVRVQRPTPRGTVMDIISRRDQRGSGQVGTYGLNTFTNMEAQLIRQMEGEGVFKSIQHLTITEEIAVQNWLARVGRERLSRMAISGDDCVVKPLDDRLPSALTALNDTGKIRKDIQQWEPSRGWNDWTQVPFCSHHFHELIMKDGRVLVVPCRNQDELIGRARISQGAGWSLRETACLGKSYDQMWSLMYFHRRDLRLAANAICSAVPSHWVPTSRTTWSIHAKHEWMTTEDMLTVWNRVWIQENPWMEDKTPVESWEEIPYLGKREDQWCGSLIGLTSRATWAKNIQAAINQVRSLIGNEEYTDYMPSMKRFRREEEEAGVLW

[4] = molecular target: T1, Polyadenylate-binding protein 1; assay: MLLE binding blockers, Cy5 peptide tracer – biochemical, fluorescence polarization, Cy5-PAM2 peptide, secondary, miRNA deadenylation inhibitor project, dose response (AID 602260); type: functional; conditions: read-out: IC50_Mean
[5] = molecular target: T4, Rac GTPase-activating protein 1 (Homo sapiens, UniProt Q9H0H5); assay: blockers of MgcRacGAP-driven Rac1 GTP hydrolysis – biochemical, ADP Hunter fluorescence, primary and confirmatory, confirmation (AID 624330); type: functional
T4 sequence (Q9H0H5 whole entry): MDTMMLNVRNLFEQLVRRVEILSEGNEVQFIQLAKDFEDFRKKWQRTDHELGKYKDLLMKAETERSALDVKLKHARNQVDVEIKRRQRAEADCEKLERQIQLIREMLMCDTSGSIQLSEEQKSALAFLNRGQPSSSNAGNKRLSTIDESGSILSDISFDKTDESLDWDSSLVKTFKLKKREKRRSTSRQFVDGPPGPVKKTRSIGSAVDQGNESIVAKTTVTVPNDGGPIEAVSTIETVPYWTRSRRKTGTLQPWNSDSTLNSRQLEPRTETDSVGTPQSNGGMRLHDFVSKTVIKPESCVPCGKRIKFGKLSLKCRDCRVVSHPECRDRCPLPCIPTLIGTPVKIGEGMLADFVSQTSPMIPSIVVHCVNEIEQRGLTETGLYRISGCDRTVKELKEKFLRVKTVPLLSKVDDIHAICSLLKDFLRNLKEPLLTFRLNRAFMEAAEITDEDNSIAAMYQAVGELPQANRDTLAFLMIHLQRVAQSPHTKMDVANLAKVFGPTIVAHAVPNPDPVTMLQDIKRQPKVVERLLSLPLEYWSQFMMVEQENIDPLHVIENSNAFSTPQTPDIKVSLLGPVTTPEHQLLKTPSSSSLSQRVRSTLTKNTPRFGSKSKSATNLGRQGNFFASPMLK

Vero = assay: viability of Vero cells under compound – cytotoxicity control for flavivirus capping enzyme inhibitors (AID 588742); type: functional; conditions: Chlorocebus sabaeus
[6] = molecular target: T5, Zinc finger protein mex-5 (Caenorhabditis elegans, UniProt Q9XUB2); assay: potency of MEX-5 RNA-binding blockers – biochemical, C. elegans, fluorescence polarization, dose response (AID 1960)
T5 sequence (Q9XUB2 whole entry): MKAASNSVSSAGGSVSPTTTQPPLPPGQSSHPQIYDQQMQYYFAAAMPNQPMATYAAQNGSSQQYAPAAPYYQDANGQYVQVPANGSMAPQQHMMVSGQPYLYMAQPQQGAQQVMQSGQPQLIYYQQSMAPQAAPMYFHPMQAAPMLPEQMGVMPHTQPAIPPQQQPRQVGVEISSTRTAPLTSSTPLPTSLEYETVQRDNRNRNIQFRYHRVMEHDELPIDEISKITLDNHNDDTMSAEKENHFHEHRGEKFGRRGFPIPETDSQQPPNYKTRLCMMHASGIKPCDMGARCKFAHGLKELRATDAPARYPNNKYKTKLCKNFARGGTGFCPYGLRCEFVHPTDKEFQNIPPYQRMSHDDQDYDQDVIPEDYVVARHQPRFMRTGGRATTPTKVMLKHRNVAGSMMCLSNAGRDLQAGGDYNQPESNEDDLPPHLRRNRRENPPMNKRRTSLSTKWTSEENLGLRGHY

[7] = molecular target: T2, Small ubiquitin-related modifier 1; assay: SUMO1 protein interaction blockers, potency – biochemical, fluorescence polarization, uHTS hits, dose response (AID 624382); type: functional; conditions: read-out: IC50_Mean
[8] = Trypanosoma cruzi growth suppression in host cells – NIH3T3 host cells, beta-gal luminescence, confirmation (AID 2044); type: functional, cell-based;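 further: intracellular parasites grown in NIH/3T3 mouse fibroblasts as host cells; luminescent beta-galactosidase reporter signal from transgenic T. cruzi replicating inside host cells; inhibitors lower the luminescence signal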
[9] = NIH3T3 cell viability loss – ATP luminescence, mouse fibroblasts, counter-screen, dose response (AID 2010); type: functional, cell-based;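 further: cells exposed to compound for about 90 hours before reading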
[10] = loss of viability in HepG2 cells – cell-based, CellTiter-Glo, cherry-picked, cytotoxicity control for Shn3 inhibitor project, dose response (AID 624134); type: functional
[11] = Counterscreen for AddAB inhibitors: absorbance-based bacterial cell-based high throughput dose response assay for inhibitors of bacterial viability. [Related pubchem assays (depositor defined):AID435030, AID449728, AID449731, AID488942, AID488955, AID488956]; type: functional
[12] = non-specific 3'UTR reporter inhibition in Clone20-Shn3RL – cell-based, Renilla luciferase, cherry-picked, counter-screen for Shn3 inhibitor project, dose response (AID 624133); type: functional
Jurkat [13] = assay: SAR Analysis of small molecule inhibitors of T-cell specific antigen receptor-induced NF-kB activation in a Jurkat cell line using a luminescence assay - Set 2. [Related pubchem assays (depositor defined):AID435003, AID435012, AID465]; type: functional, cell-based; conditions: Homo sapiens
HEK293 [14] = assay: SAR Analysis of small molecule inhibitors of T-cell specific antigen receptor-induced NF-kB activation in a HEK-293T cell line using a luminescence assay. [Related pubchem assays (depositor defined):AID435003, AID435012, AID489026]; type: functional, cell-based; conditions: Homo sapiens
[15] = molecular target: T6, Serine/threonine-protein phosphatase (Candida dubliniensis (strain CD36 / CBS 7987 / NCPF 3949 / NRRLY-17841) (Yeast), UniProt B9W6M3); assay: blockers of CaCl2-induced CDRE-lacZ signaling – S. cerevisiae, luminescence, secondary, dose response (AID 2388); type: functional, cell-based;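 further: yeast reporter cells carrying a calcineurin-responsive lacZ construct stimulated with calcium chloride; luminescent beta-galactosidase reporter signal in whole cells rather than isolated phosphatase activity; potency for inhibition where a drop in reporter signal means calcineurin blockade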
T6 sequence (B9W6M3 whole entry): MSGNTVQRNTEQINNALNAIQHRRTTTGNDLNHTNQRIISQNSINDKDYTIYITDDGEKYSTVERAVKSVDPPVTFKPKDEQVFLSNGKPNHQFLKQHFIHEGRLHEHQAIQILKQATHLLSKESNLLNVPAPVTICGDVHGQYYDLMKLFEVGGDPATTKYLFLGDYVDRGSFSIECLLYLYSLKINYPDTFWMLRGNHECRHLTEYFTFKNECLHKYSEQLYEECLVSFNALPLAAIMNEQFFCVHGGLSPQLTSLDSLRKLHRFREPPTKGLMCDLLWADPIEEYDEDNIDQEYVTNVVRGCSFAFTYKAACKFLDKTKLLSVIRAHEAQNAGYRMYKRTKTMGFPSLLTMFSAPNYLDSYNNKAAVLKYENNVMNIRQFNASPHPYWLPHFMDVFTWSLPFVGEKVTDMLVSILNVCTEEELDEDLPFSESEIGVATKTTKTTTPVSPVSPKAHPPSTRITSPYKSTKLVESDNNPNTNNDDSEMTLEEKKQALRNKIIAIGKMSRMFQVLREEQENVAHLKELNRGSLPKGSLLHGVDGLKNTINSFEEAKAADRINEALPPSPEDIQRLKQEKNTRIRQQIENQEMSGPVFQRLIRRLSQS

cells [16] = type: functional, cell-based
Nonstructural protein 1 = Nonstructural protein 1 (Influenza A virus, UniProt Q194T2); type: functional, Influenza A virus (A/California/07/2009(H1N1))
Sequence of Nonstructural protein 1 (Q194T2 whole entry): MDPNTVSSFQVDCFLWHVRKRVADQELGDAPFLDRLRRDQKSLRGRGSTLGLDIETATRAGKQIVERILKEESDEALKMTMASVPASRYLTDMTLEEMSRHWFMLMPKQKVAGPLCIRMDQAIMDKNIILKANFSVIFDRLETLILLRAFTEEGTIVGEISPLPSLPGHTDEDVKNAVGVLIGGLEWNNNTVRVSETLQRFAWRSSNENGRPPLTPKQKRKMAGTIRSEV

[17] = molecular target: Heat shock protein HSP 90-alpha (Homo sapiens, UniProt P07900); type: functional, organism-based
cells [18] = type: functional, cell-based; remark: listed apart in the source
[19] = reduction of Shn3 3'UTR-driven luciferase in osteoblasts – cell-based, Clone20 osteoblasts, firefly luciferase, cherry-picked, dose response (AID 624132); type: functional;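 further: firefly luciferase luminescence from reporter carrying the Shn3 3'UTR in osteoblasts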
Exodeoxyribonuclease V = Exodeoxyribonuclease V (Escherichia coli (strain K12), UniProt P04993+P07648+P08394); assay: RecBCD inhibition via phage-restricted bacterial growth – absorbance, V66 E. coli, mutant T4 phage, counter-screen for AddAB inhibitor project, dose response (AID 492957); type: functional, cell-based, Escherichia coli str. K-12 substr. MG1655
[20] = fluconazole-exposed Candida albicans growth modulators – fluorescence, retest, confirmation (AID 2467); type: functional, cell-based
HEK293 [21] = assay: SAR Analysis of small molecule inhibitors of T-cell specific antigen receptor-induced NF-kB activation in a HEK-293T cell line using a luminescence assay - Set 2. [Related pubchem assays (depositor defined):AID435003, AID435012, AID489026]; type: functional, cell-based; conditions: Homo sapiens
HEK293 [22] = assay: HEK293T cell viability loss, resazurin readout – resazurin fluorescence, cytotoxicity control for NF-kB activator project, SAR follow-up (AID 493251); type: functional, cell-based
[23] = NIH-3T3 fibroblast cytotoxicity, dose response, cytotoxicity control, cell-based, fluorescence, Alamar Blue, secondary assay (AID 2327); type: functional;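 further: NIH-3T3 mouse fibroblasts cultured with fluconazole at 8 µg/mL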
Jurkat [24] = assay: SAR Analysis of small molecule inhibitors of T-cell specific antigen receptor-induced NF-kB activation in a Jurkat cell line using a luminescence assay. [Related pubchem assays (depositor defined):AID435003, AID435012, AID465]; type: functional, cell-based; conditions: Homo sapiens
[25] = molecular target: ATP-dependent molecular chaperone HSP82 (Candida albicans (strain WO-1) (Yeast), UniProt C4YTQ8); assay: steroid-induced GRE reporter decrease in yeast – S. cerevisiae, luminescence, Hsp90 inhibitor project, dose response (AID 2400); type: functional, cell-based;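 further: beta-galactosidase luminescence from glucocorticoid response element reporter as proxy for Hsp90 function; inhibitor potency where signal loss means Hsp90 inhibition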
Sequence of ATP-dependent molecular chaperone HSP82 (C4YTQ8 whole entry): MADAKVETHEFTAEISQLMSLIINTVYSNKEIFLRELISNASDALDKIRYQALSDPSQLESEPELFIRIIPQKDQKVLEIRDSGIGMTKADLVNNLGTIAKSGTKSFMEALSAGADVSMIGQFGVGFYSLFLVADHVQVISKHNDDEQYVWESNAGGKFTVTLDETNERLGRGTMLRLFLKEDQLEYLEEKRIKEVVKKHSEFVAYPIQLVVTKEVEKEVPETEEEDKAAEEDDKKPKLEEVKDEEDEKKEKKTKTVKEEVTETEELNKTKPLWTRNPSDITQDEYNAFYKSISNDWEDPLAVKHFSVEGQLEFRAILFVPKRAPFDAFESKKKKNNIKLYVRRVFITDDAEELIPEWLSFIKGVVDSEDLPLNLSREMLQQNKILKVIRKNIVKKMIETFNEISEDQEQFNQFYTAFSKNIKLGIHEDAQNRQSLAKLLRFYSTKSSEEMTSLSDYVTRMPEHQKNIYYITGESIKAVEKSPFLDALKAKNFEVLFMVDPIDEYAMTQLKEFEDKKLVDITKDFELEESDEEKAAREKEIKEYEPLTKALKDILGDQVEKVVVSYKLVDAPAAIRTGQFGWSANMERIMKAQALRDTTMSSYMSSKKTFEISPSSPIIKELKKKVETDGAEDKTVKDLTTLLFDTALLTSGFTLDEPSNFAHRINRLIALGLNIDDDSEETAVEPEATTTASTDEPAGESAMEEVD

INS1 = assay: INS-1E survival protection against cytokine death – cell-based, luminescence, retest, dose response (AID 449756); type: functional; conditions: Rattus norvegicus;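 further: cell death triggered by IL-1 beta plus TNF-alpha plus IFN-gamma mixture; protective hits raise ATP signal compared with cytokine alone wells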

Sequence of ORF 73 (O40947 whole entry, the tested form may be a part): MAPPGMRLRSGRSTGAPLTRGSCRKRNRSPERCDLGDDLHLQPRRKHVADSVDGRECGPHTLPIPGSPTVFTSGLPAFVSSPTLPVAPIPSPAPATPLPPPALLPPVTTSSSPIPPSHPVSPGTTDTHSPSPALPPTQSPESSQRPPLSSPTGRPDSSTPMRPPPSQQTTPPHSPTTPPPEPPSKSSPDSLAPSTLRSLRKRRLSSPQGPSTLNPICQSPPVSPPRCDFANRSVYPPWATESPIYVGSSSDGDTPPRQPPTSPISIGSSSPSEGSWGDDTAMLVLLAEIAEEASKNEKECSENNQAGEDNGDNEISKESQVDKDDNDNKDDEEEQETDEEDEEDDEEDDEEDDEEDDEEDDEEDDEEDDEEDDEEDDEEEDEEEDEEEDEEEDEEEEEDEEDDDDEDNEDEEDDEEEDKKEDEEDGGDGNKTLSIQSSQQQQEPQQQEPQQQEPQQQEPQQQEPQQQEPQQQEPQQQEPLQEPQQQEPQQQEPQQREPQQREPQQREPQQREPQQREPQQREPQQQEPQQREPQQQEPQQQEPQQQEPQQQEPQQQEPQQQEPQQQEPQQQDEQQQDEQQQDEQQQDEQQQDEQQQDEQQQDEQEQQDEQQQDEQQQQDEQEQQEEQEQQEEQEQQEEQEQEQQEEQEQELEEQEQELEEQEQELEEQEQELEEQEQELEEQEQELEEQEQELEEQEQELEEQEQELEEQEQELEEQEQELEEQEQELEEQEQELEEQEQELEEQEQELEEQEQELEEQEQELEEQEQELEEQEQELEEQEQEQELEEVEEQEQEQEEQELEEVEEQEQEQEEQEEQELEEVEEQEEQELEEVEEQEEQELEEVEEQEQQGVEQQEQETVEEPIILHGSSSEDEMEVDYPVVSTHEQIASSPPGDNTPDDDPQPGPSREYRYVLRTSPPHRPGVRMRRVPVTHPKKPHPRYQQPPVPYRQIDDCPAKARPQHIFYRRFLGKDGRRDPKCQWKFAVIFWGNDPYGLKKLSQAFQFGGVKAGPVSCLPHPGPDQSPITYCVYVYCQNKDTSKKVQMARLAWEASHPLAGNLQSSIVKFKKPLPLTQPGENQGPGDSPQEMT

SMILES: CCOC(=O)C1Nc2ccc(C(=O)O)cc2C2C=CCC12 (configuration not stated)
- AC50 (ORF 73): 42.9 µM (active)
- IC50 [1]: > 66 µM (inactive)
- IC50 [2]: 39 µM (inactive)
- EC50 [3]: 38.9 µM (active)
- IC50 (Genome polyprotein): 44.9 µM (active)
- IC50 [4]: > 66 µM (inactive)
- IC50 [5]: 305 µM (active)
- CC50 (Vero): > 40 µM (active)
- EC50 [6]: 20.3 µM (active)
- IC50 [7]: > 66.6 µM (inactive)

SMILES: CCCC(=O)NC(c1ccccc1)c1ccc2cccnc2c1O (configuration not stated)
- EC50 [8]: 0.565 µM (active)
- EC50 [9]: 1.01 µM (active)
- AC50 [10]: 2.88 µM (active)
- IC50 [11]: > 119 µM (inactive)
- AC50 [12]: 1.89 µM (active)
- IC50 (Jurkat [13]): 6.27 µM (active)
- IC50 (HEK293 [14]): 7.31 µM (active)
- EC50 [15]: > 180 µM (inactive)
- EC50 (cells [16]): 6.78 µM (active)
- IC50 (Nonstructural protein 1): 21.5 µM (active)
- AC50 [17]: 4.65 µM (active)
- EC50 (cells [18]): > 350 µM (not active)
- AC50 [19]: 1.99 µM (active)
- IC50 (Exodeoxyribonuclease V): > 119 µM (inactive)
- EC50 [20]: 0.463 µM (active)
- IC50 (HEK293 [21]): 10.5 µM (active)
- IC50 (HEK293 [22]; Homo sapiens, HEK293): 13.6 µM (active)
- IC50 (HEK293 [22]; hek293): 8.74 µM (active)
- EC50 [23]: 16.6 µM (inconclusive)
- IC50 (Jurkat [24]): 3.81 µM (active)
- EC50 [25]: > 160 µM (inactive)
- AC50 (INS1): 0.664 µM (active)
